{"source": "patent US20100119525A1", "about": "(priority 2005, published 2010)", "key": {"[1]": {"target": "NPC1L1 (Homo sapiens, UniProt Q9UHC9)", "sequence (Q9UHC9 22-1359)": "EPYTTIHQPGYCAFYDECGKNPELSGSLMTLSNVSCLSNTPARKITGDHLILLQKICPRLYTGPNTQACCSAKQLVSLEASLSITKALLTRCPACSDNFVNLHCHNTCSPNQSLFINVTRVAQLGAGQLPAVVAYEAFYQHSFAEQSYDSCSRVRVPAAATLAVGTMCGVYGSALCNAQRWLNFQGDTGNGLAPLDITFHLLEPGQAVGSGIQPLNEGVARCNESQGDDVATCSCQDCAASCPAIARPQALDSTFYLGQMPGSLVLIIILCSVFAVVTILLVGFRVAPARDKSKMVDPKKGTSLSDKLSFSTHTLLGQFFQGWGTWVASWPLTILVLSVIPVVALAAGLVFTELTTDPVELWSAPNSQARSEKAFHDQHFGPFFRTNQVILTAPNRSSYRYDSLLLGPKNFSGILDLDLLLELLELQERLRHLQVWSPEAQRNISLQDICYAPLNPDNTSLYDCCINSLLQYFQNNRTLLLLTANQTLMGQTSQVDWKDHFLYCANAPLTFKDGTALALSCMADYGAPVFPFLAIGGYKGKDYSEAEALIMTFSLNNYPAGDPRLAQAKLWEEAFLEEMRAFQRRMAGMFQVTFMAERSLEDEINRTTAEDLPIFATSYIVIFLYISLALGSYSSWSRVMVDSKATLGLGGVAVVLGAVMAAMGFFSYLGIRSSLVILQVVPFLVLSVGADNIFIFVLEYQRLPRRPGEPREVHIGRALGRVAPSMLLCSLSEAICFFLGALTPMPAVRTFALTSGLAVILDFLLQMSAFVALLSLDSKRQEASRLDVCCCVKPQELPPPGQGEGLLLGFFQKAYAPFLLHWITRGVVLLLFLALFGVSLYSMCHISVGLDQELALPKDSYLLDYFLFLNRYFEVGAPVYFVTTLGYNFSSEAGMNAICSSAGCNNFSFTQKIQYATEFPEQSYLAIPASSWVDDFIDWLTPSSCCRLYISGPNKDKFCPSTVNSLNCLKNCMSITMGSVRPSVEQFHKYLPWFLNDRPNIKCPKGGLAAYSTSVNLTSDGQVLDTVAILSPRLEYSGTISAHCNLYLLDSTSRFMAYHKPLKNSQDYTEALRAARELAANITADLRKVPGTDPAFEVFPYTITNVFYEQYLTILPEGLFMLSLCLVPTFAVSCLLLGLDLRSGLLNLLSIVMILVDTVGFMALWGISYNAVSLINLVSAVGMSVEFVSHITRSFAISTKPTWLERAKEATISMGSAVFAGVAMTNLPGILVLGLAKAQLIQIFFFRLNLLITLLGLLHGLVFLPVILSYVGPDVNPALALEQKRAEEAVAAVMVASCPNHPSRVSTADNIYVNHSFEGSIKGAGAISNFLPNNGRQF", "details": "prokaryotic screening method"}, "[2]": {"details": "in vivo, cited from earlier work"}, "[3]": {"tested_on": "C57B16 mice", "details": "in vivo; cited from earlier work"}}, "data": [{"molecule": "CCCC(=O)C1(c2ccccc2)CCNCC1.Cl", "values": [{"measurement": "NPC1L1 inhibitor identification", "setting": "[1]", "value": "inhibitor was identified"}]}, {"molecule": "O=C1[C@H](CC[C@H](O)c2ccc(F)cc2)[C@@H](c2ccc(O)cc2)N1c1ccc(F)cc1", "note": "[Zetia®, 1-(4-fluorophenyl)-(3R)-[3-(4-fluorophenyl)-3(S)-hydroxypropyl]-4(S)-(4-hydroxyphenyl)-2-azetidinone]", "values": [{"measurement": "extensively metabolised to the pharmacologically active ezetimibe-glucuronide", "setting": "[2]; po", "value": "> 80", "unit": "%"}, {"measurement": "accumulation", "setting": "[2]", "value": "~2", "unit": "fold"}, {"measurement": "time at which total Zetia concentrations reach a maximum", "setting": "[2]", "value": "1 to 2", "unit": "h"}]}, {"molecule": "ezetimibe-glucuronide", "values": [{"measurement": "estimated terminal half-life", "setting": "[2]; po", "value": "approximately 22 hours"}]}, {"molecule": "COc1ccc2[nH]cc(CCNC(C)=O)c2c1", "note": "[melatonin]", "values": [{"measurement": "life of the C57B16 mouse", "setting": "[3]", "value": "871 ± 30.5", "unit": "days"}]}]}
